Test results reported in patent US20070161691A1, “Modified-protein formation inhibitor” (TOKAI UNIVERSITY, priority 2003, published 2007).

How the values were obtained:
[1] = Suppressing effect on the nitration of tyrosine with peroxynitrite; type: biochemical; settings: in comparison with pyridoxamine as positive control; 0.1, 0.5, 2.5 and 5 mM
Method: According to the method of Pannala, A.S. et al. (Free Radic. Biol. Med., 24:594-606, 1998), the examination was carried out. Namely, tyrosine (final concentration: 100 μM), the test compound (final concentration: 0.1, 0.5, 2.5 and 5 mM) and peroxynitrite (Dojin Kagaku) (final concentration: 500 μM) were dissolved in 200 mM of phosphate buffer (pH7.4) (liquid volume 500 μL) and incubated at 37° C. for 15 minutes. After incubation, the nitrotyrosine formation was determined with HPLC in the following manner: after a predifined time, the reaction mixture (20 μL) was injected onto HPLC, separation was made with C18 column (4.6×250 mm, 5 μm: Waters) and the detection was effected using a ultraviolet detector (RF-10A: Shimazu Seisakusho) at a wavelength of 280 nm. In the mobile phase, the flow rate was 0.6 mL/min and the concentration of buffer B was varied from 5.0% to 30% in 30 minutes (buffer A: 0.10% trifluoroacetic acid; buffer B: 80% acetonitrile containing 0.08% trifluoroacetic acid). 4-Hydroxy-3-nitrobenzoic acid (100 μM) was used as the internal standard.

[2] = system: ischemia-reperfusion acute renal failure model; assay: Renal protective effect on ischemia-reperfusion acute renal failure model rat; type: in vivo; settings: 1 mg/kg once a day, 2 days
Method: This condition model is typical acute renal failure model. To prepare the model, operated on wistar rat (male, body weight 150 g, 6 weeks aged) to remove right kidney, and on the following day, renal artery of remaining left kidney was applied a ligature with clip under general anesthesia. […] After preparing the ischemia-reperfusion model, test compound (4-(5-phenyltetrazol-1-yl methyl)-morpholine (compound 1), 1 mg/kg body weight, once a day) was suspended in 0.5% carboxymethylcellulose. The suspension was coercively administered 2 days continuously, on third day kidney was obtained, and analysed pathologically (renal tubular stromal disorder score). In particular, the kidney was stained by PAS according to conventional method and the renal tubular stromal disorder was estimated for the presence or absence of renal tubular necrosis, renal tubular hypertrophy, renal tubular atrophia, renal tubular basal lamina thickening and cast in the sustained image of kidney. As well as biochemical analysis of blood was carried out (contract clinical analysis organization: SRL).

[3] = Vitamin B6 (PLP; pyridoxal phosphate) trapping; type: biochemical; settings: 500 μM compound, 50 μM PLP, PBS
Method: To a solution of vitamin B6, the compound of this invention is added, and after a certain period of time, an amount of vitamin B6 remained is determined.
4-(5-phenyltetrazol-1-ylmethyl)-morpholine (Compound 1), 5-methyl-1-(5-phenyltetrazol-1-ylmethyl)-3a,6a-dihydro-1H-pyrrolo[3,4-d][1,2,3]triazol-4,6-dione (Compound 2) and (5-phenyltetrazol-1-yl)methanol (Compound 3) as well as aminoguanidine as the positive control were each dissolved in DMSO in a designed concentration to make a sample solution. DMSO itself was used as the negative control. In addition, pyridoxal phosphate (PLP) was dissolved in purified-water to make a designed concentration. PBS was added to each of the test compound, the positive control and the negative control, to make a final concentration of 500 μM. The PLP solution as above prepared was added to each of the resultant solution to make a final concentration of 50 μM for preparation of the PLP reaction solution. Using HPLC, the amount of PLP in the PLP reaction solution was determined after 0.1 and 10 hours, from which the PLP trapping amount of each test compound was ascertained.
The analysis of PLP using HPLC was carried out by separation with reverse-phase C18 column (4.6×250 mm, 5 μm; Waters) and by using a fluorescence detector (RF-10A; Shimazu Seisakusho; excitation wavelength, 300 nm and fluorescence wavelength, 400 nm). In the mobile phase, the flow rate was 0.6 mL/min and the concentration of buffer B was varied from 0% to 3% in 25 minutes (buffer A: 0.10% trifluoroacetic acid; buffer B: 80% acetonitrile containing 0.08% trifluoroacetic acid).

[4] = system: glomerulonephritis model with mesangial proliferative nephritis; assay: Effect against glomerulonephritis (anti Thy-1 antibody model); type: in vivo, rat; settings: 1 mg/kg once a day, 5 days
Method: 1.2 mg/kg of OX-7, anti Thy-1 antibody, was administered to wistar rat (male, body weight 150 g, 6 weeks old) in tail vein to prepare typical glomerulonephritis model with mesangial proliferative nephritis. After the administration of anti Thy-1 antibody, test compound (4-(5-phenyltetrazol-1-ylmethyl)-morpholine (compound 1), 1 mg/kg body weight, once a day) was suspended in 0.5% carboxymethylcellulose, was coercively administered for 5 days continuously, on sixth day sampled, kidney was obtained, and analysed pathologically (count the number of glomerular cells). In particular, cells were stained by PAS according to conventional method, the stained image was captured by 3CCD camera (Olympus), and then analyzed using softwares, Image Graver PCI (FUJI shashin film) and Mac Aspect (Mitani kabushiki kaisha). Also, biochemical analysis of blood and urine was carried out (contract clinical analysis organization: SR L).

[5] = Absorbability examination, oral administration to rat; type: in vivo; settings: 50 mg/kg oral
Method: For 4-(5-phenyltetrazol-1-yl methyl)-morpholine (compound 1) and (5-phenyltetrazol-1-yl)methanol (compound 3), their sorbability were examined. Each compounds are suspended in carboxymethyl cellulose in given concentration to prepare sample for oral administration. Then each samples were administered in the ratio of 50 mg/kg to rat using sonde. Five Wister rats (male, 8 weeks aged, closed colony) were used every one group. At one hour, 2 hours, 6 hours and 24 hours after the administration of compound, blood was obtained. The obtained blood samples were immediately cetrifuged at 3000 rpm for 15 minutes to obtain the blood plasma and the concentration of the compound in the specimen was quantitated by HPLC. Briefly, to 100 μL of obtained blood plasma was added to 200 μL of acetonitrile, centrifuged at 12000 rpm for 10 minutes to obtain supernatant, deproteinized and served to HPLC. The measuring condition of HPLC was selected from suitable condition for each compounds to separate and quantify. For example, in case of 4-(5-phenyltetrazol-1-yl methyl)-morpholine (compound 1), separated with reverse-phase C18 column (4.6×250 mm, 5 μm: Waters), and then detected using ultraviolet detector (RF-10A: Shimazu Seisakusho) at 240 nm of wavelength to quantify. In mobile phase, the flow rate is 0.8 mL/min and solvent is water: acetonitrile.

Compound: c1ccc(-c2nnnn2CN2CCOCC2)cc1 [Compound 1, 4-(5-phenyltetrazol-1-ylmethyl)-morpholine]
- nitrotyrosine formation, suppression [1]: suppressed remarkably
- BUN [2]: BUN reducing effect
- PLP trapping [3]: none
- BUN [4]: BUN reducing effect
- urinary protein [4]: urinary protein reducing effect
- sorbability (plasma concentration after oral administration) [5]: good sorbability
